From patent US8354269B2 (priority 2008, dated 2013)
Read-outs that look alike come from different tables or passages of the source.

How the values were obtained:
[1] = tested on: Clostridium autoethanogenum culture 19630
Procedure: To determine the cell density in these experiments, the absorbance of the samples was measured at 600 nm (spectrophotometer) and the dry mass determined by extrapolation.
Sterile 234 ml serum bottles were purged three times with 95% CO, 5% CO2 gas and then evacuated to a vacuum of −5 psi. The serum bottles were charged with 25 ml of LM33 media. Additional NiCl2 solutions were optionally added to the serum bottle (to final concentrations of 0.1 mM and 1 mM) which were inoculated with 1 ml of an actively growing Clostridium autoethanogenum culture 19630 from a continuous bioreactor. The headspace of the serum bottle was then filled with CO containing gas to 30 psi (composition 100% CO). The serum bottles were incubated at 37° C. and continuously agitated. Samples were taken at intervals and the headspace was purged and refreshed up to 30 psi following sampling.

[2] = tested on: Clostridium ljungdahlii DSM13528
[3] = tested on: Clostridium autoethanogenum DSM10061
Procedure: High Performance Liquid Chromatography (HPLC) was used to characterize the level of substrates and products such as for acetate, ethanol, fructose, xylose and pyruvate. HPLC System Agilent 1100 Series. Mobile Phase: 0.0025N Sulphuric Acid. Flow and pressure: 0.800 mL/min. Column: Alltech IOA; Catalog #9648, 150×6.5 mm, particle size 5 μm. Temperature of column: 60° C. Detector: Refractive Index. Temperature of detector: 45° C.
Method for sample preparation: 400 μL of sample+50 μL of 0.15M ZnSO4+50 μL of 0.15M Ba(OH)2 into an Eppendorf tube. Centrifuge 10 min at 12,000 rpm, 4° C. Transfer 200 μL supernatant into an HPLC vial and inject into the HPLC instrument 5 μL.
The serum bottles were charged with CO containing gas (2% H2; 30% N2; 47% CO; 21% CO2) to an overpressure of 30 psi. The gas was purged and refreshed at time=54 h. Growth was monitored by measuring the optical density at 600 nm (OD600nm) and metabolites were detected by HPLC.

## [Cl][Ni][Cl] [Nickel, nickel chloride]
[1]; 0.1 mM nickel above LM33
  total microbial cell density: 1.1 g/L
[1]; 1 mM nickel above LM33
  total microbial cell density: 1.2 g/L
[1]; Additional Nickel 0.1 mM, 18 h
  Acetate: 0.57 g/L
  Cell density: 0.14 g/L
  Ethanol: 0.37 g/L
[1]; Additional Nickel 0.1 mM, 30 h
  Acetate: 0.61 g/L
  Cell density: 0.54 g/L
  Ethanol: 2.63 g/L
[1]; Additional Nickel 0.1 mM, 80 h
  Acetate: 0.38 g/L
  Cell density: 1.08 g/L
  Ethanol: 7.14 g/L
[1]; Additional Nickel 1 mM, 18 h
  Acetate: 0.48 g/L
  Cell density: 0.18 g/L
  Ethanol: 0.47 g/L
[1]; Additional Nickel 1 mM, 30 h
  Acetate: 0.85 g/L
  Cell density: 0.59 g/L
  Ethanol: 2.59 g/L
[1]; Additional Nickel 1 mM, 80 h
  Acetate: 0.66 g/L
  Cell density: 1.23 g/L
  Ethanol: 9.04 g/L
[2]; Nickel 200 μM, 0 h
  Ethanol: 0.23 ± 0.02 g/L
  OD600 nm: 0.010 ± 0.001
[2]; Nickel 200 μM, 30 h
  Acetate: 0.07 ± 0.07 g/L
  Ethanol: 0.23 ± 0.02 g/L
  OD600 nm: 0.057 ± 0.003
[2]; Nickel 200 μM, 54 h
  Acetate: 0.24 ± 0.10 g/L
  Ethanol: 0.27 ± 0.03 g/L
  OD600 nm: 0.163 ± 0.053
[2]; Nickel 200 μM, 102 h
  Acetate: 0.38 ± 0.10 g/L
  Ethanol: 0.57 ± 0.11 g/L
  OD600 nm: 0.273 ± 0.001
[2]; Nickel 200 μM, 127 h
  Acetate: 0.77 ± 0.24 g/L
  Ethanol: 0.58 ± 0.07 g/L
  OD600 nm: 0.284 ± 0.010
[2]; Nickel 400 μM, 0 h
  Ethanol: 0.22 ± 0.02 g/L
  OD600 nm: 0.011 ± 0.002
[2]; Nickel 400 μM, 30 h
  Ethanol: 0.22 ± 0.01 g/L
  OD600 nm: 0.097 ± 0.024
[2]; Nickel 400 μM, 54 h
  Acetate: 0.15 ± 0.04 g/L
  Ethanol: 0.21 ± 0.02 g/L
  OD600 nm: 0.114 ± 0.030
[2]; Nickel 400 μM, 102 h
  Acetate: 0.20 ± 0.01 g/L
  Ethanol: 0.53 ± 0.31 g/L
  OD600 nm: 0.199 ± 0.103
[2]; Nickel 400 μM, 127 h
  Acetate: 0.30 ± 0.19 g/L
  Ethanol: 0.77 ± 0.24 g/L
  OD600 nm: 0.310 ± 0.017
[2]; Nickel 700 μM, 0 h
  Ethanol: 0.25 ± 0.01 g/L
  OD600 nm: 0.009 ± 0.001
[2]; Nickel 700 μM, 30 h
  Ethanol: 0.24 ± 0.01 g/L
  OD600 nm: 0.235 ± 0.076
[2]; Nickel 700 μM, 54 h
  Acetate: 0.21 ± 0.05 g/L
  Ethanol: 0.35 ± 0.11 g/L
  OD600 nm: 0.427 ± 0.182
[2]; Nickel 700 μM, 102 h
  Acetate: 0.24 ± 0.03 g/L
  Ethanol: 0.73 ± 0.01 g/L
  OD600 nm: 0.579 ± 0.062
[2]; Nickel 700 μM, 127 h
  Acetate: 0.34 ± 0.16 g/L
  Ethanol: 0.82 ± 0.03 g/L
  OD600 nm: 0.528 ± 0.054
[2]; Nickel 1000 μM, 0 h
  Ethanol: 0.24 ± 0.01 g/L
  OD600 nm: 0.011 ± 0.001
[2]; Nickel 1000 μM, 30 h
  Ethanol: 0.26 ± 0.01 g/L
  OD600 nm: 0.549 ± 0.049
[2]; Nickel 1000 μM, 54 h
  Acetate: 0.23 ± 0.02 g/L
  Ethanol: 0.42 ± 0.14 g/L
  OD600 nm: 0.691 ± 0.017
[2]; Nickel 1000 μM, 102 h
  Acetate: 0.31 ± 0.03 g/L
  Ethanol: 0.68 ± 0.26 g/L
  OD600 nm: 0.862 ± 0.324
[2]; Nickel 1000 μM, 127 h
  Acetate: 0.46 ± 0.03 g/L
  Ethanol: 0.98 ± 0.11 g/L
  OD600 nm: 0.853 ± 0.329
[3]; Nickel 200 μM, 0 h
  Ethanol: 0.22 ± 0.02 g/L
  OD600 nm: 0.009 ± 0.001
[3]; Nickel 200 μM, 30 h
  Ethanol: 0.22 ± 0.03 g/L
  OD600 nm: 0.038 ± 0.010
[3]; Nickel 200 μM, 54 h
  Acetate: 0.12 ± 0.02 g/L
  Ethanol: 0.23 ± 0.03 g/L
  OD600 nm: 0.052 ± 0.022
[3]; Nickel 200 μM, 102 h
  Acetate: 0.83 ± 0.53 g/L
  Ethanol: 0.23 ± 0.01 g/L
  OD600 nm: 0.223 ± 0.141
[3]; Nickel 200 μM, 127 h
  Acetate: 1.48 ± 0.54 g/L
  Ethanol: 0.30 ± 0.19 g/L
  OD600 nm: 0.333 ± 0.131
[3]; Nickel 400 μM, 0 h
  Ethanol: 0.22 ± 0.02 g/L
  OD600 nm: 0.010 ± 0.001
[3]; Nickel 400 μM, 30 h
  Ethanol: 0.22 ± 0.02 g/L
  OD600 nm: 0.065 ± 0.002
[3]; Nickel 400 μM, 54 h
  Acetate: 0.18 ± 0.10 g/L
  Ethanol: 0.21 ± 0.02 g/L
  OD600 nm: 0.087 ± 0.011
[3]; Nickel 400 μM, 102 h
  Acetate: 1.05 ± 0.85 g/L
  Ethanol: 0.68 ± 0.41 g/L
  OD600 nm: 0.337 ± 0.129
[3]; Nickel 400 μM, 127 h
  Acetate: 1.44 ± 0.83 g/L
  Ethanol: 0.68 ± 0.21 g/L
  OD600 nm: 0.452 ± 0.200
[3]; Nickel 700 μM, 0 h
  Ethanol: 0.23 ± 0.03 g/L
  OD600 nm: 0.011 ± 0.001
[3]; Nickel 700 μM, 30 h
  Ethanol: 0.24 ± 0.02 g/L
  OD600 nm: 0.238 ± 0.023
[3]; Nickel 700 μM, 54 h
  Acetate: 0.25 ± 0.01 g/L
  Ethanol: 0.25 ± 0.03 g/L
  OD600 nm: 0.292 ± 0.013
[3]; Nickel 700 μM, 102 h
  Acetate: 0.94 ± 0.14 g/L
  Ethanol: 0.73 ± 0.05 g/L
  OD600 nm: 0.714 ± 0.060
[3]; Nickel 700 μM, 127 h
  Acetate: 0.95 ± 0.16 g/L
  Ethanol: 0.72 ± 0.03 g/L
  OD600 nm: 0.620 ± 0.021
[3]; Nickel 1000 μM, 0 h
  Ethanol: 0.29 ± 0.04 g/L
  OD600 nm: 0.010 ± 0.001
[3]; Nickel 1000 μM, 30 h
  Ethanol: 0.28 ± 0.02 g/L
  OD600 nm: 0.268 ± 0.080
[3]; Nickel 1000 μM, 54 h
  Acetate: 0.38 ± 0.01 g/L
  Ethanol: 0.26 ± 0.03 g/L
  OD600 nm: 0.389 ± 0.071
[3]; Nickel 1000 μM, 102 h
  Acetate: 1.57 ± 0.21 g/L
  Ethanol: 1.02 ± 0.09 g/L
  OD600 nm: 0.720 ± 0.105
[3]; Nickel 1000 μM, 127 h
  Acetate: 1.78 ± 0.11 g/L
  Ethanol: 0.99 ± 0.11 g/L
  OD600 nm: 0.674 ± 0.098
